Measured values from patent US20030008807A1, “Novel signaling pathway for the production of inflammatory pain and neuropathy” (The Regents of the University of California, priority 2001, published 2003).
“Also recorded” adds a separate entry of the source.

Assays:
[1] = system: Taxol-induced hyperalgesia; experiment: Taxol-induced painful peripheral neuropathy, Randall-Selitto paw-withdrawal test; type: in vivo, rat; conditions: male and female rats, administered at site of nociceptive testing on paw
Description: (§1) The role of Ras-MEK-ERK 1/2 cascade in painful peripheral neuropathy has been evaluated in three rodent models of common clinical conditions in which patients experience painful peripheral neuropathy. The three models are as follows: 1) Taxol® (a major cancer chemotherapy agent)-induced painful peripheral neuropathy (Dina, O. A., et al., (2001) Role of protein kinase C-epsilon and protein kinase A in a model of paclitaxel-induced painful peripheral neuropathy in the rat. Neuroscience 108:507-515); 2) vincristine (another cancer chemotherapy agent)-induced painful peripheral neuropathy (Aley, K. O., et al., (1996) Vincristine hyperalgesia in the rat: a possible modelfor painful vincristine neuropathy in humans. Neuroscience 73:259-265; Tanner, K. D., et al., (1998) Nociceptor hyper-responsiveness during vincristine-induced painful peripheral neuropathy in the rat. J. Neuroscience 18:6480-6491; Tanner, K. D., et al., (1998) Microtubule disorientation and axonal swelling in unmyelinated sensory axons during vincristine-induced painful neuropathy in rat. J. Comp. Neurol., 395:481-492; and, Tanner, K. D., et al., (2002) Altered temporal patterning of afferent activity in a rat model of vincristine-induced peripheral neuropathy (Submitted -Neuroscience).); and, 3) alcohol-induced painful peripheral neuropathy (Dina, O. A., et al., (2000) Key role for the epsilon isoform of protein kinase C in painful alcoholic neuropathy in the rat. J. Neurosci. 20:8614-8619). In all three models, inhibition of MEK by a MEK inhibitor, PD98509, produced either a moderate (Taxol and vincristine) or profound (alcohol) reversal of the painful peripheral neuropathy. In the third model, alcohol-induced painful peripheral neuropathy, a second inhibitor of the Ras-MEK-ERK 1/2 cascade, which was MEK inhibitor U0126, was also employed.
The pain threshold in normal male and female rats was approximately 110 grams, using the Randall-Selitto paw-withdrawal test (plotted as absolute change in nociceptive threshold). Following administration of Taxol, the threshold fell to approximately 70 grams.

[2] = system: alcohol-induced hyperalgesia; experiment: Alcohol-induced painful peripheral neuropathy, Randall-Selitto paw-withdrawal test; type: in vivo, rat
Description: as §1
The pain threshold in normal rats was approximately 110 grams, using the Randall-Selitto paw-withdrawal threshold test (plotted as percentage change in nociceptive threshold). Following chronic consumption of a diet in which alcohol replaced calories, but not other nutrients, in the normal diet, the threshold fell to approximately 70 grams. […] See FIG. 13A, which illustrates results from female rats and FIG. 13B, which illustrates results from male rats.

[3] = system: mechanical nociceptive threshold; experiment: Epinephrine-induced mechanical hyperalgesia, Randall-Selitto paw-withdrawal test (Example 1)
Description: (§4) The nociceptive flexion reflex (Randall-Selitto paw-withdrawal test) was quantified with a Basile Analge-symeter (Stoelting, Chicago, Ill.), which applies a linearly increasing mechanical force to the dorsum of the rat's hindpaw. The mechanical nociceptive threshold was defined as the force in grams at which the rat withdrew its paw. […] They were allowed to crawl into individual cylindrical Perspex blocks and were lightly restrained there by closing both ends of the cylinder. […] The rats were allowed to acclimatize to the restrainer for 5-10 min, after which the hindpaws were exposed to the test stimulus. Three readings were taken at 5 min intervals, and their mean was considered the baseline threshold. After each drug administration, mechanical paw-withdrawal thresholds were determined again as the mean of three readings taken 20, 25, and 30 min after injection.
Inhibitors were diluted with distilled water before intra-dermal injections into the paw using a 10 μl microsyringe (Hamilton, Reno, Nev.). Injections of peptides (1 μg/2.5 μl) were always preceded by injection of distilled water (2.5 μl) to produce hypo-osmotic shock. […] Paw-withdrawal thresholds were measured again 10, 15, and 20 min after injecting the test agent. The mean of the paw-withdrawal thresholds obtained at these three times was then taken as the mechanical nociceptive threshold at the dose of the test agent used. The effect of each dose a test agent was calculated as the percentage change from baseline.

[4] = system: mechanical nociceptive threshold; experiment: ψεRACK (PKCε activator)-induced hyperalgesia, Randall-Selitto paw-withdrawal test; type: in vivo, rat; conditions: intradermal, inhibitor 1 μg plus ψεRACK 1 μg, male rats
Experimental: (§2) The nociceptive flexion reflex (Randall-Selitto paw-withdrawal test) was quantified with a Basile Analge-symeter (Stoelting, Chicago, Ill.), which applies a linearly increasing mechanical force to the dorsum of the rat's hindpaw. The mechanical nociceptive threshold was defined as the force in grams at which the rat withdrew its paw. On the day of the test, animals were brought to the laboratory and allowed to remain in the cage for 10-15 min. They were allowed to crawl into individual cylindrical Perspex blocks and were lightly restrained there by closing both ends of the cylinder. […] Three readings were taken at 5 min intervals, and their mean was considered the baseline threshold. After each drug administration, mechanical paw-withdrawal thresholds were determined again as the mean of three readings taken 20, 25, and 30 min after injection. The result was expressed as the percentage decrease in nociceptive threshold [(paw-withdrawal threshold after the drug-basal paw withdrawal threshold)/basal withdrawal threshold×100].
(§3) Stock solutions (1 μg/μl) of BIM (in 10% dimethylsulfoxide) and εV1-2 and WI PTI DE (in 0.9% saline) were stored at […]. […] Paw-withdrawal thresholds were measured again 10, 15, and 20 min after injecting the test agent. […] The effect of each dose a test agent was calculated as the percentage change from baseline.

[5] = system: mechanical nociceptive threshold; experiment: Epinephrine-induced hyperalgesia in gonad-intact and gonadectomized male and female rats (Example 2); conditions: inhibitor 1 μg, epinephrine 100 ng intradermal
Experimental: The nociceptive flexion reflex was quantified using the Randall-Selitto paw pressure device (Analgesymeter, Stoetling, Chicago, Ill., USA), which applies a linearly increasing mechanical force to the dorsum of the rat's hind paw. The mechanical nociceptive threshold was defined as the force in grams at which the rat withdrew its paw. […] Baseline paw-withdrawal threshold was defined as the mean of six readings before test agents were injected. […] Each group of rats was treated with only one agonist and/or antagonist injected peripherally by the intradermal route. […] All behavioural testing was done between 10.00 and 16.00 h. […] The protein kinase inhibitor was separated from the distilled water by drawing up a small air bubble (<1 μL) into the syringe after drawing up the protein kinase inhibitor but before drawing up the distilled water.
A stock solution of PGE2 (4 mg/mL) was made by dissolving it in 10% ethanol in normal saline; further dilution to 100 ng was made by addition of saline. Final concentration of ethanol was <10%. […] Stock solutions (1 μg/μL) of inhibitors were stored at −20° C. […] Inhibitors were injected at a concentration of 1 μg/2.5 μL.

[6] = system: vincristine-induced hyperalgesia; experiment: Vincristine-induced painful peripheral neuropathy, Randall-Selitto paw-withdrawal test; type: in vivo, rat; conditions: male and female rats, administered at site of nociceptive testing on paw
Description: as §1
The pain threshold in normal male and female rats was approximately 110 grams, using the Randall-Selitto paw-withdrawal test (plotted as absolute change in nociceptive threshold). Following administration of vincristine, the threshold fell to approximately 65 grams.

[7] = system: mechanical nociceptive threshold; experiment: PGE2-induced hyperalgesia, Randall-Selitto paw-withdrawal test (Example 1); type: in vivo, rat; conditions: intradermal, inhibitor 1 μg plus PGE2 100 ng, male rats
Experimental: as §2, §3

[8] = system: ERK1/2; experiment: Epinephrine-stimulated ERK1/2 phosphorylation in cultured rat DRG neurons (Western analysis); type: cell-based
Experimental: Trypsin was inactivated by adding 100 μg/ml soybean trypsin inhibitor and 2.5 mg/ml MgSO4. The cells were centrifuged at 300×g for 5 min and resuspended culture media containing minimal essential medium (MEM) supplemented with 10% heat-inactivated fetal calf serum, 1×MEM vitamins, and 1000 U/ml each of penicillin and streptomycin. The culture was enriched for neurons by preplating on 100 mm culture dishes pretreated with 0.1 mg/ml poly-DL-ornithine in 15 mM sodium borate buffer. After culture for 15-20 hr, the loosely attached neuronal cells were collected and plated for 3 hr on six-well plates coated with 0.1 mg/ml poly-DL-ornithine and 1 mg/ml laminin.
After drug treatment, cells from neuron-enriched DRG cultures were collected and centrifuged at 300×g for 5 min at 4° C. […] Blots were incubated with anti-phospho-p42/44 MAP kinase antibody (diluted 1:500 in blocking buffer) overnight at 4° C. Blots were rinsed three times in PBS-T and incubated in blocking buffer containing HRP-conjugated goat anti-rabbit IgG (diluted 1:1000; Boehringer Mannheim, Indianapolis, Ind.) for 1 hr at 27° C. Immunoreactive bands were visualized by enhanced chemiluminescence (Amersham Pharmacia Biotech, Piscataway, N.J.). The membranes were then stripped of antibodies by incubation in 200 mM NaOH for 20 min at 27° C. […] After three washes in PBS-T, blots were incubated with HRP-conjugated goat anti-rabbit IgG (diluted 1:1000; Boehringer Mannheim) for 1 hr at 27° C., and immunoreactive bands were visualized by enhanced chemiluminescence and autoradiography. […] Data were normalized by dividing values obtained for phospho-ERK1 and phospho-ERK2 immunoreactivity by the value obtained for total ERK1 immunoreactivity for each sample.

[9] = system: mechanical nociceptive threshold; experiment: Prostaglandin E2-induced hyperalgesia in male and female rats (Example 2); type: in vivo, rat; conditions: both sexes, gonad-intact; inhibitor 1 μg, PGE2 100 ng intradermal
Description: The nociceptive flexion reflex was quantified using the Randall-Selitto paw pressure device (Analgesymeter, Stoetling, Chicago, Ill., USA), which applies a linearly increasing mechanical force to the dorsum of the rat's hind paw. The mechanical nociceptive threshold was defined as the force in grams at which the rat withdrew its paw. The protocols for this procedure have been previously described (Taiwo et al., (1989) The contribution of training to sensitivity in the nociceptive paw-withdrawal test. Brain Res., 487:148-151). Rats were familiarized in the testing procedure, at 5-min intervals for a period of 1 h per day for 3 days in the week preceding the experiment, to decrease variance in nociceptive thresholds (Taiwo et al., (1989), supra). Baseline paw-withdrawal threshold was defined as the mean of six readings before test agents were injected. Each paw was treated as an independent measure (Taiwo et al., (1989), supra) and each experiment was performed on a separate group of rats. Each group of rats was treated with only one agonist and/or antagonist injected peripherally by the intradermal route. It has been shown in previous studies that these agents, which are injected using the protocol described, exert a peripheral rather than central action (Khasar et al., (1995), supra; and, Khasar et al., (1999b), supra). The dose-response relationship for the effect of epinephrine was determined over a dose range of 1 ng-1 μg. All behavioural testing was done between 10.00 and 16.00 h. The blocking agents, with and without epinephrine (Khasar et al., (1999b), supra) or prostaglandin E2 (PGE2) (Aley et al., (1998), supra; Aley & Levine, (1999), supra; and, Aley et al., (2000) Chronic hypersensitivity for inflammatory nociceptor sensitization mediated by the epsilon isozyme of protein kinase C. J. Neurosci., 20:4680-4685), were injected as described previously (Khasar et al., (1995), supra; and, Khasar et al., (1999b), supra). […]

[10] = system: mechanical nociceptive threshold; experiment: Active MEK-induced hyperalgesia, Randall-Selitto paw-withdrawal test; conditions: intradermal, inhibitor 1 μg plus active MEK 0.5 U, male rats
Description: as §4
Inhibitors were diluted with distilled water before intra-dermal injections into the paw using a 10 μl microsyringe (Hamilton, Reno, Nev.). Injections of peptides (1 μg/2.5 μl) were always preceded by injection of distilled water (2.5 μl) to produce hypo-osmotic shock. […] Paw-withdrawal thresholds were measured again 10, 15, and 20 min after injecting the test agent. […] The effect of each dose a test agent was calculated as the percentage change from baseline.

[11] = male and female rats, administered at site of nociceptive testing on paw

Molecule | effect on Taxol-induced hyperalgesia [1] | effect on Taxol-induced hyperalgesia ([1]; listed as PD98509) | effect on alcohol-induced hyperalgesia ([2]; female rats (FIG. 13A)) | effect on alcohol-induced hyperalgesia [2, 11] | effect on alcohol-induced hyperalgesia ([2]; male and female rats, administered at site of nociceptive testing on paw, listed as PD98509) | effect on alcohol-induced hyperalgesia ([2]; male rats (FIG. 13B)) | effect on epinephrine-induced mechanical hyperalgesia ([3]; intradermal, inhibitor 1 μg plus epinephrine 100 ng, male rats) | effect on hyperalgesia induced by ψεRACK [4] | effect on epinephrine-induced hyperalgesia ([5]; intact female rats) | effect on vincristine-induced hyperalgesia [6] | effect on vincristine-induced hyperalgesia ([6]; listed as PD98509) | effect on vincristine-induced hyperalgesia ([6]; listed as PD980598) | effect on hyperalgesia induced by PGE2 [7] | effect on epinephrine-induced mechanical hyperalgesia ([3]; rat, in vivo) | effect on epinephrine-induced ERK phosphorylation [8] | effect on prostaglandin E2-induced hyperalgesia [9] | effect on epinephrine-induced hyperalgesia ([5]; gonadectomized female rats) | effect on epinephrine-induced hyperalgesia ([5]; intact male rats) | effect on hyperalgesia induced by active MEK [10]
COc1cccc(-c2cc(=O)c3ccccc3o2)c1N [PD98059] | two-thirds reduction; also recorded: significantly reversed | moderate | almost completely reversed | almost complete reversal | profound | almost completely reversed | inhibited | had no effect | attenuated | more than two-thirds reduction; also recorded: reversed | moderate | significantly reversed | had no effect | – | – | – | – | – | –
N#CC(=C(/N)Sc1ccccc1N)/C(C#N)=C(\N)Sc1ccccc1N [U0126] | – | – | almost completely reversed | almost complete reversal | – | almost completely reversed | – | had no effect | attenuated | – | – | – | had no effect | inhibited | inhibited | – | – | – | –
WIPTIDE | – | – | – | – | – | – | – | – | neither inhibited | – | – | – | – | – | – | significantly blocked; also recorded: inhibited to a similar degree | inhibition | antagonized | did not reduce
